{
  "source": "the NIST ThermoML archive (doi:10.1016/j.jct.2005.12.003)",
  "key": {"[1]": {"conditions": "Liquid; for mass density: 298.15 K, 101.33 kPa; for vapor or sublimation pressure: refractive and density measurements"}, "[2]": {"experiment": "refractive index (Na D-line) (dimensionless)", "conditions": "298.15 K; 101.33 kPa; Liquid; Standard Abbe refractometry"}},
  "note": "± gives the expanded uncertainty stated by the source.",
  "data": [
    {"smiles": "c1ccccc1", "note": "[benzene]", "values": [
      {"measurement": "mass density", "setting": "[1]", "result": "873.6 ± 0.2", "unit": "kg/m3"},
      {"measurement": "vapor or sublimation pressure", "setting": "[1]; 353.25 K", "result": 101.3, "unit": "kPa"},
      {"measurement": "refractive index", "setting": "[2]", "result": "1.49692 ± 0.00072"}
    ]},
    {"smiles": "Clc1ccccc1", "note": "[chlorobenzene]", "values": [
      {"measurement": "mass density", "setting": "[1]", "result": "1100.8 ± 0.5", "unit": "kg/m3"},
      {"measurement": "vapor or sublimation pressure", "setting": "[1]; 404.82 K", "result": 101.3, "unit": "kPa"},
      {"measurement": "refractive index", "setting": "[2]", "result": "1.52176 ± 0.00075"}
    ]},
    {"smiles": "C1CCCCC1", "note": "[cyclohexane]", "values": [
      {"measurement": "mass density", "setting": "[1]", "result": "773.7 ± 0.3", "unit": "kg/m3"},
      {"measurement": "vapor or sublimation pressure", "setting": "[1]; 353.89 K", "result": 101.3, "unit": "kPa"},
      {"measurement": "refractive index", "setting": "[2]", "result": "1.4232 ± 0.00072"}
    ]}
  ]
}
